Experimental data from publication PMC6163600, “Antihypertensive Effects of Two Novel Angiotensin I-Converting Enzyme (ACE) Inhibitory Peptides from Gracilariopsis lemaneiformis (Rhodophyta) in Spontaneously Hypertensive Rats (SHRs)” (Marine Drugs, 2018).
Where two headings read alike, the source gives them in different places. Non-standard residues stand in square brackets, D forms with d. Residues, ends and D or L forms follow the SMILES beside them. No end group written: not given here. Met(O) = CS(=O)CC[C@H](N)C(=O)O

Experiments:
[1] = molecular target: T1, ACE (from rabbit lung) (Oryctolagus cuniculus, UniProt P12822); experiment: Determination of inhibitory pattern (Lineweaver-Burk plots); assay type: biochemical; conditions: X-axis intercept of the plot of Lineweaver-Burk slopes against peptide concentration
T1 construct: ACE (from rabbit lung); purchased Sigma-Aldrich Co. (St. Louis, MO, USA); host or cells: rabbit lung tissue
T1 sequence (P12822 34-1310): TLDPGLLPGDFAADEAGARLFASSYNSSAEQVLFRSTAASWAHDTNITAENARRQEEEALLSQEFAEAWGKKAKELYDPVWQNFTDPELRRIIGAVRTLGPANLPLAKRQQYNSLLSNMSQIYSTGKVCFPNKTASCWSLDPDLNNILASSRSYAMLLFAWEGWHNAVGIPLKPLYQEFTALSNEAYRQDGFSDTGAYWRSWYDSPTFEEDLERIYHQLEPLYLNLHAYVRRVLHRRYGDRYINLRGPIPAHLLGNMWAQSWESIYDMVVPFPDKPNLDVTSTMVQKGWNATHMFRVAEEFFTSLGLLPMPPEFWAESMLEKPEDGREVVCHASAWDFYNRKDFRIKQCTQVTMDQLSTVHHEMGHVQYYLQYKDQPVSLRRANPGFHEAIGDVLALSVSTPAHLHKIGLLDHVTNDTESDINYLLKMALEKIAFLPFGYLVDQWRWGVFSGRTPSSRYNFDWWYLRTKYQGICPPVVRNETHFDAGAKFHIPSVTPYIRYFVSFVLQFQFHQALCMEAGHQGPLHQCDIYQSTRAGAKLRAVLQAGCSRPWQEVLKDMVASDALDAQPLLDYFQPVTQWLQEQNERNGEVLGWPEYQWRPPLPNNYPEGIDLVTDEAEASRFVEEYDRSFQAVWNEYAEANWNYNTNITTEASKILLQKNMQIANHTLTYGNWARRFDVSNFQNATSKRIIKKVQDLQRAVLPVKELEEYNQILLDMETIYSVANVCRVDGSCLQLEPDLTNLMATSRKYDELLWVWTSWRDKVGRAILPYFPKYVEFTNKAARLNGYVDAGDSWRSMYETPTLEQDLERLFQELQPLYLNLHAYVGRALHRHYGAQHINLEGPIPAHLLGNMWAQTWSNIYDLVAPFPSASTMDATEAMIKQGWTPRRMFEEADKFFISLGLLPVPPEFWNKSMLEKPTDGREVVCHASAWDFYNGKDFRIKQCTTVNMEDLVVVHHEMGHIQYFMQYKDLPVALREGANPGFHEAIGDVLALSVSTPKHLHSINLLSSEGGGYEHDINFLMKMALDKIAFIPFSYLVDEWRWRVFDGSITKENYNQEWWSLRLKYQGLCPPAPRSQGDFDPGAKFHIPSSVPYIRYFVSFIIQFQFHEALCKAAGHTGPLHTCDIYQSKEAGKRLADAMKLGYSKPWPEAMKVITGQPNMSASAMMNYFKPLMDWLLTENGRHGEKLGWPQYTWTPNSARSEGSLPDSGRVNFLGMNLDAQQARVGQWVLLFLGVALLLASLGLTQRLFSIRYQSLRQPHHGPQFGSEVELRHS
Procedure: (§1) ACE (from rabbit lung), hippuryl-histidyl-leucine (HHL), high-performance liquid chromatography (HPLC)-grade acetonitrile (ACN), trifluoroaceticacid (TFA) and porcine pancreatin (8× USP) were purchased from Sigma-Aldrich Co. (St. Louis, MO, USA). Trypsin (EC […], ≥250. N.F.U/mg solid), pepsin (EC 3.4.23.1, ≥250 U/mg solid), and captopril (>99% purity) were obtained from Solarbio (Beijing, China). All other chemical reagents were of analytical grade.
(§2) ACE inhibition activity was assayed according to Cushman and Cheung, with some modification. ACE was dissolved in sodium borate buffer (pH 8.3, containing 0.3 M sodium chloride) to 0.1 U/mL for the assay. Synthetic peptides were dissolved in distilled water to seven concentration levels. Then, 20 μL of a certain concentration of peptide was mixed with 10 μL ACE solution. The mixture was incubated at 37 °C for 5 min, and then 50 μL of 5 mM HHL (sodium borate buffer pH 8.3, containing 0.3 M sodium chloride) was added to the above mixture to start the reaction. […] The absorbance was detected at 228 nm. […] The activity of ACE inhibition was calculated as followed:ACE inhibitory activity (%) = (Acontrol − Ainhibitor)/Acontrol × 100 where Ainhibitor is the relative area of the hippuric acid (HA) peak obtained from the reaction of ACE and HHL with inhibitor. […]

[2] = molecular target: T1, ACE (from rabbit lung); experiment: Stability of peptides against ACE; assay type: in vitro ADME; conditions: 0.1 mg/mL peptide with 0.1 U/mL ACE, 37 °C, 24 h; read-out ACE inhibitory activity; mean ± SD, n = 3
Description: as §1
The stability of peptides against ACE was assayed according to Salampessy. J and Fujita. H [48, 49]. 30 μL of peptides (0.1 mg/mL) reacted with 30 μL 0.1 U/mL ACE solution at 37 °C for 24 h. The ACE was then inactivated through boiling the solution for 10 min. Then, 20 μL of peptides were used to detect ACE inhibitory activity in the above method.

[3] = Observed water solubility of the peptide; assay type: physicochemical; conditions: when the concentration was lower than 10 mg/mL; solubility gradually decreased above 10 mg/mL
Description: The properties and stabilities of peptides are prerequisites for the preparation of "functional peptides". According to the information in the Innovagen server, FQIN [M(O)] CILR has poor water solubility. […] The hydrophobicity of FQIN [M(O)] CILR is related to the presence of hydrophobic amino acids, such as Phe, Leu, Ile, and Met. The hydrophobicity of FQIN [M(O)] CILR may facilitate the binding of peptides to the hydrophobic active center of ACE, in turn, produce better inhibitory activity.

[4] = molecular target: T1, ACE (from rabbit lung); experiment: ACE inhibition activity assay (HHL substrate, hippuric acid by RP-HPLC); assay type: biochemical; conditions: 0.1 U/mL ACE, 5 mM HHL, sodium borate buffer pH 8.3 with 0.3 M NaCl, 37 °C, 60 min; seven peptide concentrations; triplicate, mean ± SD
Procedure: as §1, §2

[5] = system: spontaneously hypertensive rats (SHRs); experiment: Antihypertensive effect on SHRs (tail-cuff SBP and DBP); assay type: in vivo, rat; conditions: positive control, single oral dose 10 mg/kg body weight
Procedure: Spontaneously hypertensive rats (SHRs) (male, 10-week-old, 250–300 g body weight, specific, pathogen-free) were bought from Vital River Laboratory Animal Co., Ltd. (Beijing, China). Animals used in this study were maintained in accordance with the guidelines of the Institutional Research Council’s Guide for the Care and Use of Laboratory Animals. SHRs were housed under 12 h day/night cycle at 22 ± 2 °C and fed with tap water and a standard diet ad libitum. The SHRs were randomly separated into a positive group, control group, and two experiment groups. There were six SHRs in each group. Before the formal start of the test, SHRs had to adapt to measuring the environment in advance. Once the tail systolic blood pressure (SBP) rates were above 180 mmHg, the gavage administration could start.
Normal saline was the solvent to dissolve peptides and control reagent. Captopril (99% purity, Solarbio Technology Co., Ltd., Beijing, China) was the positive group. The same volume of normal saline was the control group. Tail-cuff method was performed for systolic blood pressure (SBP) and diastolic blood pressure (DBP) measurements with a non-invasive CODA device (Kent Scientific Co., Torrington, CT, USA). The blood pressure was measured in 0, 1, 2, 4, 6, 8 h after gavage administration. Measurements were repeated three times at each time point.

[6] = system: ACE; design: method as in 6 sources, ref 31 = [31]; doi:10.1007/s00217-017-2886-2; 31. Cao D. Lv X. Xu X. Yu H. Sun X. Xu N. Purification and identification of a novel ACE inhibitory peptide from marine alga Gracilariopsis lemaneiformis protein hydrolysate Eur. Food Res. Technol. 20 ||| ref 32, 33 = [32]; doi:10.1016/j.procbio.2017.08.009; 32. Guo M. Chen X. Wu Y. Zhang L. Huang W. Yuan Y. Fang M. Xie J. Wei D. Angiotensin I-converting enzyme inhibitory peptides from Sipuncula ( Phascolosoma esculenta ): Purification, identification, mo || [33]; doi:10.1080/00021369.1987.10868415; 33. Maruyama S. Mitachi H. Awaya J. Kurono M. Tomizuka N. Suzuki H. Angiotensin I-Converting Enzyme Inhibitory Activity of the C-Terminal Hexapeptide of αs1-Casein Agric. Biol. Chem. Tokyo 1987 51 255 ||| ref 7 = [7]; 7. Fujita H. Yokoyama K. Yoshikawa M. Classification and antihypertensive activity of angiotensin I-converting enzyme inhibitory peptides derived from food proteins J. Food Sci. 2000 65 564 569 ||| ref 43 = [43]; PMID 24866326; doi:10.1021/jf501368a; 43. Duan X. Wu F. Li M. Yang N. Wu C. Jin Y. Yang J. Jin Z. Xu X. Naturally occurring angiotensin I-Converting enzyme inhibitory peptide from a fertilized egg and its inhibitory mechanism J. Agric. Fo ||| ref 44 = [44]; doi:10.1016/j.foodres.2012.11.002; 44. Liu X. Zhang M. Jia A. Zhang Y. Zhu H. Zhang C. Sun Z. Liu C. Purification and characterization of angiotensin I converting enzyme inhibitory peptides from jellyfish Rhopilema esculentum Food Res. ||| ...; conditions: cited from earlier work; for Inhibition pattern on ACE: peptides isolated from food stuffs, ref 37 (IFL), 38 (AVKVL), 39 (VELWP)
[7] = cited from earlier work
Description: Antihypertensive activity of peptides were further evaluated using spontaneously hypertensive rats (SHRs). […] Overall, drugs can exert better antihypertensive effects than hydrolysates and antihypertensive peptides derived from foods. […] Both FQIN [M(O)] CILR and TGAPCR decreased the SBP of SHRs. FQIN [M(O)] CILR and TGAPCR reduced the SBP of SHRs by 34 mmHg and 28 mmHg to the maximum extent, re ...

[8] = peptide isolated from dried bonito, before pre-incubation with ACE, read-out: IC50 (ACE inhibition)
[9] = peptides isolated from jellyfish, read-out: IC50 (ACE inhibition)
[10] = reported C-terminal arginine ACE inhibitory peptides, read-out: IC50 (ACE inhibition)

With CC[C@H](C)[C@H](NC(=O)[C@H](CS)NC(=O)[C@H](CC[S+](C)[O-])NC(=O)[C@H](CC(N)=O)NC(=O)[C@@H](NC(=O)[C@H](CCC(N)=O)NC(=O)[C@@H](N)Cc1ccccc1)[C@@H](C)CC)C(=O)N[C@@H](CC(C)C)C(=O)N[C@@H](CCCNC(=N)N)C(=O)O (stereo partly drawn) [FQIN [M(O)] CILR] (H-FQIN[Met(O)]CILR-OH) the Ki [1] was 710 ± 40 µM, the “Stability against ACE hydrolysis (ACE inhibitory activity after incubation with ACE)” value [2] was “stable ACE inhibitors but not substrates of ACE” and the “water solubility found in the authors' study” value [3] was “good water solubility”. The IC50 [4] was 9.64 ± 0.36 µM.
In the case of C[C@H](CS)C(=O)N1CCC[C@H]1C(=O)O [captopril], the “Antihypertensive effect on SHRs (in words)” value [5] is reported as “maximal antihypertensive effect”.
In the case of AVKVL, the “Inhibition pattern on ACE” value [6] is given as “noncompetitive inhibition”.
In the case of FFGRCVSP, the IC50 [6, 8] is listed as 0.4 µM and the IC50 ([6]; peptide isolated from dried bonito, hydrolyzed by ACE to fragments, read-out: IC50 after hydrolysis by ACE) is listed as 4.6 µM.
For GDIGY, the IC50 [6, 9] is given as 32.6 µM and the “Reduction of SBP” value [7] is given as 20.67 mmHg.
For GNGSGYVSR, the IC50 [6, 10] is given as 29 µM.
For HLFGPPGKKDPV, the IC50 ([6]; peptide separated from fertilized eggs, read-out: IC50 (ACE inhibition)) is given as 125 µM and the “Greatest SBP drop” value ([7]; oral dose of 10 mg/kg) is given as 30 mmHg.
For LKPNM, the “IC50 after the pre-incubation with ACE, as fraction of the IC50 before” value ([6]; hydrolyzed into LKP and NM) is listed as 1/3 and the IC50 [6, 8] is listed as 2.4 µM.
In the case of QPGPT, the IC50 [6, 9] is listed as 80.7 µM and the “Reduction of SBP” value [7] is listed as 13.75 mmHg.
For QVEY, the IC50 ([6]; peptide from trypsin hydrolyzate of G. lemaneiformis, read-out: IC50 (ACE inhibition)) is given as 474 µM.
For TGAPCR [TGAPCR], the Ki [1] was 860 ± 60 µM, the “Stability against ACE hydrolysis (ACE inhibitory activity after incubation with ACE)” value [2] was “stable ACE inhibitors but not substrates of ACE” and the IC50 [4] was 23.9 ± 0.82 µM.
For VELWP, the “Inhibition pattern on ACE” value [6] is listed as “noncompetitive inhibition”.
In the case of YASGR, the IC50 [6, 10] is given as 184 µM.
In the case of YIPIQYVLSR, the IC50 [6, 10] is given as 132 µM.
